Among the test systems are HCT-15 colon; HS 578T breast; HT29 colon; IGROV1 ovarian; K-562 leukemia; MDA-MB-231 breast; MDA-N; SNB-19 CNS; T-47D breast; UACC-62 melanoma.
Holding throughout (assay): NCI-60 cell line screen, 48 h

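Results reflect a 48-hour exposure of cells in 96-well plates to compound at five concentrations. TGI is the concentration that stops growth completely.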

For the compound `O=C1c2c(Cl)c(Cl)c(Cl)c(Cl)c2C(=O)N1CCN(c1c(Cl)ssc1=O)c1c(Cl)ssc1=O`, the TGI was 41.1 µM with HCT-15 colon; more than 100 µM in the assay with HS 578T breast; 35.6 µM in the assay with HT29 colon; more than 100 µM in the assay on IGROV1 ovarian; 53.4 µM in the assay on K-562 leukemia; more than 100 µM with MDA-MB-231 breast. The TGI in the assay with MDA-N was 33.3 µM; with SNB-19 CNS, more than 100 µM; with T-47D breast it was 44.5 µM; with UACC-62 melanoma, 44.4 µM.
For `O=C(/C=C1\N=C(c2ccccc2)N(c2nc3ccc(Sc4ccccc4)cc3[nH]2)C1=O)/C=C/c1ccccc1`, the TGI was more than 100 µM in the assay on HCT-15 colon; more than 100 µM in the assay with HS 578T breast; 92.8 µM in the assay with HT29 colon; more than 100 µM with IGROV1 ovarian; more than 100 µM with K-562 leukemia; 53.8 µM in the assay on MDA-MB-231 breast. Moreover, the TGI was 33.6 µM in the assay with MDA-N, more than 100 µM with SNB-19 CNS, 82.6 µM with T-47D breast and 85.2 µM in the assay with UACC-62 melanoma.
For the compound `CC(C)(C)OC(=O)NCCCCC(N)C(N)=O` (stereo not given), the TGI in the assay with HCT-15 colon, in the assay on HS 578T breast, with HT29 colon, in the assay on IGROV1 ovarian, with K-562 leukemia and with MDA-MB-231 breast was more than 100 µM each time. Moreover, the TGI with MDA-N, with SNB-19 CNS, with T-47D breast and in the assay on UACC-62 melanoma was more than 100 µM each time.
For the compound `CC1(C)CC(=O)C(CCC(=O)/C=C/c2ccccc2)C(=O)C1`, the TGI in the assay on HCT-15 colon, in the assay with HS 578T breast, in the assay with HT29 colon, in the assay with IGROV1 ovarian, in the assay with K-562 leukemia and in the assay on MDA-MB-231 breast was more than 100 µM each time. Further, the TGI in the assay with MDA-N, in the assay on SNB-19 CNS, with T-47D breast and in the assay on UACC-62 melanoma was more than 100 µM each time.
As for `N#Cc1c(N2CCCC2)nsc1NCc1ccccc1`, the TGI with HCT-15 colon, in the assay on HS 578T breast, with HT29 colon, with IGROV1 ovarian, with K-562 leukemia and in the assay on MDA-MB-231 breast was more than 100 µM throughout. In addition, the TGI with MDA-N, in the assay with SNB-19 CNS, in the assay on T-47D breast and in the assay with UACC-62 melanoma was more than 100 µM throughout.
Take `CCC(C#N)(c1ccccc1)N(CCc1ccccc1)C(=O)c1ccccc1` (stereo not given): the TGI was more than 100 µM in the assay on HCT-15 colon; 69.6 µM with HS 578T breast; more than 100 µM with HT29 colon; more than 100 µM in the assay with IGROV1 ovarian; more than 100 µM with K-562 leukemia; 52.2 µM with MDA-MB-231 breast. For the same compound, the TGI in the assay on MDA-N, in the assay with SNB-19 CNS, in the assay with T-47D breast and in the assay on UACC-62 melanoma was more than 100 µM in each case.
As to `O=P1(C(O)/C=C/c2ccccc2)N(Cc2ccccc2)[C@H](c2ccccc2)[C@@H](c2ccccc2)N1Cc1ccccc1` (stereo not given in full), the TGI was more than 85.3 µM in the assay with HCT-15 colon; more than 90.2 µM in the assay on HS 578T breast; more than 86.3 µM in the assay on HT29 colon; more than 44.6 µM in the assay on IGROV1 ovarian; more than 80.6 µM with K-562 leukemia; 69.7 µM in the assay on MDA-MB-231 breast. Also, the TGI in the assay with MDA-N, in the assay on SNB-19 CNS, in the assay on T-47D breast and in the assay on UACC-62 melanoma was more than 100 µM throughout.
As to `C=CCOC(=O)N1[C@H]2C#C/C=C\C#C[C@]3(O)C(=O)C[C@H](C)[C@]24O[C@]43C2=CC(=O)C=CC21OC` (stereo not given in full), the TGI is more than 100 µM in the assay with HCT-15 colon; more than 100 µM in the assay with HS 578T breast; 75.2 µM in the assay on HT29 colon; 67.3 µM with IGROV1 ovarian; more than 100 µM with K-562 leukemia; 85.9 µM in the assay with MDA-MB-231 breast. For the same compound, the TGI in the assay on MDA-N, with SNB-19 CNS, in the assay on T-47D breast and in the assay with UACC-62 melanoma was more than 100 µM in each case.
In the case of `NNC(=O)CSc1nc2ccc(I)cc2c(=O)n1Cc1ccccc1`, the TGI in the assay on HCT-15 colon was more than 100 µM; with HS 578T breast, 52.5 µM; in the assay with HT29 colon, 44.8 µM; in the assay on IGROV1 ovarian it was 69.3 µM; in the assay with K-562 leukemia it was 88 µM; in the assay on MDA-MB-231 breast it was 34.1 µM. Also, the TGI in the assay on MDA-N is more than 100 µM; with SNB-19 CNS, 54.8 µM; in the assay on T-47D breast, more than 100 µM; in the assay on UACC-62 melanoma, 40.4 µM.
Regarding `COC(=O)CCc1cc(OC)c(O)c(C(Cc2ccc(OC)c(OC)c2)C(=O)OC)c1` (stereo not given), the TGI in the assay on HCT-15 colon, in the assay on HS 578T breast, with HT29 colon, in the assay on IGROV1 ovarian, in the assay with K-562 leukemia and in the assay on MDA-MB-231 breast was more than 100 µM each time. Further, the TGI in the assay with MDA-N, with SNB-19 CNS, in the assay on T-47D breast and with UACC-62 melanoma was more than 100 µM each time.
Turning to `NC(=O)c1nnc2ccc(F)cc2c1N`, the TGI with HCT-15 colon, with HS 578T breast, in the assay with HT29 colon, in the assay on IGROV1 ovarian, in the assay on K-562 leukemia and in the assay on MDA-MB-231 breast was more than 100 µM throughout. Further, the TGI in the assay on MDA-N, in the assay with SNB-19 CNS, in the assay on T-47D breast and in the assay on UACC-62 melanoma was more than 100 µM in each case.
`CN(C)C(Cc1cnc[nH]1)C(=O)N1CCCC1C(N)=O` (stereo not given): the TGI in the assay on HCT-15 colon, in the assay with HS 578T breast, in the assay on HT29 colon, with IGROV1 ovarian, in the assay on K-562 leukemia and in the assay with MDA-MB-231 breast was more than 100 µM throughout. In addition, the TGI with MDA-N, in the assay on SNB-19 CNS, in the assay with T-47D breast and in the assay with UACC-62 melanoma was more than 100 µM each time.
With `CCCCCC(C)(C)CCC(=O)OC1OC(COC2OC(COC3OC(CO)C(O)C(O)C3O)C(O)C(O)C2O)C(O)C(O)C1O` (stereo not given), the TGI with HCT-15 colon, with HS 578T breast, with HT29 colon, in the assay on IGROV1 ovarian, in the assay with K-562 leukemia and with MDA-MB-231 breast was more than 100 µM throughout. Also, the TGI in the assay on MDA-N, in the assay on SNB-19 CNS, with T-47D breast and with UACC-62 melanoma was more than 100 µM each time.
As to `O=c1cc(NCCCCCO)[nH]c(=O)[nH]1`, the TGI in the assay on HCT-15 colon, in the assay with HS 578T breast, in the assay on HT29 colon, in the assay on IGROV1 ovarian, with K-562 leukemia and in the assay on MDA-MB-231 breast was more than 100 µM in each case. Besides, the TGI in the assay with MDA-N, with SNB-19 CNS, in the assay with T-47D breast and with UACC-62 melanoma was more than 100 µM in each case.
On to `Cc1cc(N(CCC#N)CCC#N)ccc1/C(N=Nc1ccc(Cl)cc1)=N\NC(=O)c1cc(Cl)ccc1O`, for which the TGI in the assay with HCT-15 colon is more than 100 µM; with HS 578T breast it was 56.2 µM; in the assay on HT29 colon, more than 100 µM; with IGROV1 ovarian, more than 100 µM; with K-562 leukemia, more than 100 µM; in the assay with MDA-MB-231 breast it was more than 100 µM. In addition, the TGI was more than 100 µM in the assay on MDA-N, 75.4 µM with SNB-19 CNS, more than 100 µM in the assay with T-47D breast and more than 100 µM in the assay on UACC-62 melanoma.
Take `Cc1ccc(-c2nc(C)c(C(=O)Nc3ccc(Cl)cc3)s2)cc1`: the TGI was more than 100 µM in the assay on HCT-15 colon; 62.1 µM with HS 578T breast; more than 100 µM in the assay on HT29 colon; 82.4 µM in the assay on IGROV1 ovarian; more than 100 µM in the assay on K-562 leukemia; 75.6 µM in the assay with MDA-MB-231 breast. Moreover, the TGI in the assay with MDA-N was more than 100 µM; with SNB-19 CNS, 43.2 µM; with T-47D breast it was more than 100 µM; with UACC-62 melanoma, 45.8 µM.
As to `O=C(O)c1ccccc1NC(c1ccccc1)c1ccc2cccnc2c1O` (stereo not given), the TGI in the assay with HCT-15 colon is more than 58.9 µM; with HS 578T breast, more than 68.1 µM; in the assay with HT29 colon it was more than 100 µM; in the assay on IGROV1 ovarian, more than 100 µM; in the assay on K-562 leukemia, 53.3 µM; in the assay with MDA-MB-231 breast, more than 62.4 µM. Besides, the TGI was more than 100 µM in the assay on MDA-N, more than 100 µM in the assay on SNB-19 CNS, 39.4 µM with T-47D breast and more than 50 µM in the assay with UACC-62 melanoma.
Consider `Cc1ccc(C2=Nc3cc(C)c(Cl)cc3S(=O)(=O)NN2)cc1`, for which the TGI in the assay on HCT-15 colon, in the assay on HS 578T breast, in the assay with HT29 colon, with IGROV1 ovarian, with K-562 leukemia and in the assay on MDA-MB-231 breast was more than 100 µM in each case. Besides, the TGI in the assay on MDA-N, in the assay with SNB-19 CNS, in the assay on T-47D breast and in the assay with UACC-62 melanoma was more than 100 µM throughout.
With `CCCCCCCC1C(C)c2c([nH]c3ccccc23)C2C(=O)N(c3ccc(OC)cc3)C(=O)C21` (stereo not given), the TGI is more than 10 µM with HCT-15 colon; 4.88 µM in the assay with HS 578T breast; more than 7.4 µM with HT29 colon; more than 10 µM in the assay on IGROV1 ovarian; more than 6.39 µM in the assay with K-562 leukemia; more than 7.84 µM in the assay with MDA-MB-231 breast. Also, the TGI in the assay with MDA-N was more than 10 µM; in the assay on SNB-19 CNS, 9.92 µM; in the assay with T-47D breast, more than 10 µM; with UACC-62 melanoma, more than 10 µM.
On to `CCOC(=O)C1(C(N)=O)C(=O)c2ccncc2C1=O` (stereo not given), for which the TGI in the assay with HCT-15 colon, with HS 578T breast, in the assay with HT29 colon, in the assay with IGROV1 ovarian, in the assay on K-562 leukemia and in the assay on MDA-MB-231 breast was more than 100 µM in each case. Also, the TGI in the assay with MDA-N, in the assay with SNB-19 CNS, with T-47D breast and with UACC-62 melanoma was more than 100 µM in each case.
Consider `Cc1c2c(c(C)n1-c1ccccc1)C(=O)N(CCCCN1CCN(c3ccccc3)CC1)C2=O`, for which the TGI is 54.8 µM with HCT-15 colon; more than 100 µM in the assay with HS 578T breast; 10.1 µM in the assay on HT29 colon; more than 100 µM in the assay with IGROV1 ovarian; 37.6 µM in the assay with K-562 leukemia; 24.1 µM in the assay on MDA-MB-231 breast. The TGI with MDA-N was 31.2 µM; in the assay with SNB-19 CNS, more than 100 µM; in the assay with T-47D breast it was 28.8 µM; with UACC-62 melanoma, 36.8 µM.
For `C=CCn1c(=O)c2ccccc2[n+]2c(C)c(C(=O)OCC)sc12`, the TGI in the assay on HCT-15 colon, in the assay with HS 578T breast, with HT29 colon, in the assay with IGROV1 ovarian, with K-562 leukemia and in the assay on MDA-MB-231 breast was more than 100 µM in each case. Further, the TGI with MDA-N, in the assay on SNB-19 CNS, in the assay on T-47D breast and in the assay on UACC-62 melanoma was more than 100 µM each time.
